Assay results as given in patent publication US9693556B2, “Herbicidal pyridazinone derivatives” (SYNGENTA LIMITED, priority 2011, dated 2017).

Assays:
Assay type in all cases: in vivo
[1] = test system: Alopecurus myosuroides (ALOMY); test: Pre-emergence herbicidal glasshouse test on Alopecurus myosuroides; conditions: pre-emergence, 1000 g/h, evaluated after 13 days; for herbicidal damage, PRE Application ALOMY: five point scale
Outline: (§1)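 Read-out: percentage herbicidal damage 13 days after spraying, given on a five-point scale (5=80-100%, 4=60-79%, 3=40-59%, 2=20-39%, 1=0-19%). Pots of standard soil; application at 1000 g/h, one day post-sowing for pre-emergence, eight days for post-emergence.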

Setaria faberi (SETFA) [2] = test: Pre-emergence herbicidal glasshouse test on Setaria faberi; conditions: pre-emergence, 1000 g/h, evaluated after 13 days; for herbicidal damage, PRE Application SETFA: five point scale
Outline: as §1

[3] = test system: Echinochloa crus-galli (ECHCG); test: Pre-emergence herbicidal glasshouse test on Echinochloa crus-galli; conditions: pre-emergence, 1000 g/h, evaluated after 13 days; for herbicidal damage, PRE Application ECHCG: five point scale
Outline: as §1

Solanum nigrum (SOLNI) [4] = test: Pre-emergence herbicidal glasshouse test on Solanum nigrum; conditions: pre-emergence, 1000 g/h, evaluated after 13 days; for herbicidal damage, PRE Application SOLNI: five point scale
Outline: as §1

[5] = test system: Amaranthus retoflexus (AMARE); test: Pre-emergence herbicidal glasshouse test on Amaranthus retoflexus; conditions: pre-emergence, 1000 g/h, evaluated after 13 days; for herbicidal damage, PRE Application AMARE: five point scale
Outline: as §1

[6] = test system: Ipomoea hederacea (IPOHE); test: Pre-emergence herbicidal glasshouse test on Ipomoea hederacea; conditions: pre-emergence, 1000 g/h, evaluated after 13 days; for herbicidal damage, PRE Application IPOHE: five point scale
Outline: as §1

[7] = test system: Alopecurus myosuroides (ALOMY); test: Post-emergence herbicidal glasshouse test on Alopecurus myosuroides; conditions: post-emergence, 1000 g/h, evaluated after 13 days; for herbicidal damage, POST Application ALOMY: five point scale
Outline: as §1

Setaria faberi (SETFA) [8] = test: Post-emergence herbicidal glasshouse test on Setaria faberi; conditions: post-emergence, 1000 g/h, evaluated after 13 days; for herbicidal damage, POST Application SETFA: five point scale
Outline: as §1

[9] = test system: Echinochloa crus-galli (ECHCG); test: Post-emergence herbicidal glasshouse test on Echinochloa crus-galli; conditions: post-emergence, 1000 g/h, evaluated after 13 days; for herbicidal damage, POST Application ECHCG: five point scale
Outline: as §1

Solanum nigrum (SOLNI) [10] = test: Post-emergence herbicidal glasshouse test on Solanum nigrum; conditions: post-emergence, 1000 g/h, evaluated after 13 days; for herbicidal damage, POST Application SOLNI: five point scale
Outline: as §1

[11] = test system: Amaranthus retoflexus (AMARE); test: Post-emergence herbicidal glasshouse test on Amaranthus retoflexus; conditions: post-emergence, 1000 g/h, evaluated after 13 days; for herbicidal damage, POST Application AMARE: five point scale
Outline: as §1

[12] = test system: Ipomoea hederacea (IPOHE); test: Post-emergence herbicidal glasshouse test on Ipomoea hederacea; conditions: post-emergence, 1000 g/h, evaluated after 13 days; for herbicidal damage, POST Application IPOHE: five point scale
Outline: as §1

Compound | PRE Application ALOMY herbicidal damage (five point scale) [1] | PRE Application SETFA herbicidal damage (five point scale) (Setaria faberi (SETFA) [2]) | PRE Application ECHCG herbicidal damage (five point scale) [3] | PRE Application SOLNI herbicidal damage (five point scale) (Solanum nigrum (SOLNI) [4]) | PRE Application AMARE herbicidal damage (five point scale) [5] | PRE Application IPOHE herbicidal damage (five point scale) [6] | POST Application ALOMY herbicidal damage (five point scale) [7] | POST Application SETFA herbicidal damage (five point scale) (Setaria faberi (SETFA) [8]) | POST Application ECHCG herbicidal damage (five point scale) [9] | POST Application SOLNI herbicidal damage (five point scale) (Solanum nigrum (SOLNI) [10]) | POST Application AMARE herbicidal damage (five point scale) [11] | POST Application IPOHE herbicidal damage (five point scale) [12] | other results
Cn1ncc(-c2cc3cc(N4CCOCC4)cnc3nc2C(F)(F)F)c(O)c1=O [Compound 1.164] |  |  |  |  |  |  |  |  |  |  |  |  | herbicidal damage, PRE Application ALOMY [1]: 1 (1=0-19% damage); herbicidal damage, PRE Application SETFA (Setaria faberi (SETFA) [2]): 2 (2=20-39% damage); herbicidal damage, PRE Application ECHCG [3]: 4 (4=60-79% damage); herbicidal damage, PRE Application SOLNI (Solanum nigrum (SOLNI) [4]): 2 (2=20-39% damage); herbicidal damage, PRE Application AMARE [5]: 3 (3=40-59% damage); herbicidal damage, PRE Application IPOHE [6]: 4 (4=60-79% damage); herbicidal damage, POST Application ALOMY [7]: 1 (1=0-19% damage); herbicidal damage, POST Application SETFA (Setaria faberi (SETFA) [8]): 5 (5=80-100% damage); herbicidal damage, POST Application ECHCG [9]: 5 (5=80-100% damage); herbicidal damage, POST Application SOLNI (Solanum nigrum (SOLNI) [10]): 5 (5=80-100% damage); herbicidal damage, POST Application AMARE [11]: 5 (5=80-100% damage); herbicidal damage, POST Application IPOHE [12]: 5 (5=80-100% damage)
Cc1c(-c2cnn(C3CCCC3)c(=O)c2O)ccc(S(C)(=O)=O)c1C1=NOCC1 [Compound 1.007] | 1 (1=0-19% damage) | 4 (4=60-79% damage) | 4 (4=60-79% damage) | 2 (2=20-39% damage) | 3 (3=40-59% damage) | 2 (2=20-39% damage) | 4 (4=60-79% damage) | 4 (4=60-79% damage) | 5 (5=80-100% damage) | 5 (5=80-100% damage) | 5 (5=80-100% damage) | 4 (4=60-79% damage) | 
CCS(=O)(=O)c1nn(C)c(=O)c(O)c1-c1ccc(S(C)(=O)=O)c(C2=NOCC2)c1C [Compound 2.021] | 1 (1=0-19% damage) | 1 (1=0-19% damage) | 1 (1=0-19% damage) | 1 (1=0-19% damage) | 5 (5=80-100% damage) | 1 (1=0-19% damage) | 1 (1=0-19% damage) | 2 (2=20-39% damage) | 5 (5=80-100% damage) | 5 (5=80-100% damage) | 5 (5=80-100% damage) | 5 (5=80-100% damage) | 
Cn1ncc(-c2cc(Br)c(Br)cc2S(C)(=O)=O)c(O)c1=O [Compound 1.160] |  |  |  |  |  |  |  |  |  |  |  |  | herbicidal damage, PRE Application ALOMY [1]: 1 (1=0-19% damage); herbicidal damage, PRE Application SETFA (Setaria faberi (SETFA) [2]): 1 (1=0-19% damage); herbicidal damage, PRE Application ECHCG [3]: 5 (5=80-100% damage); herbicidal damage, PRE Application SOLNI (Solanum nigrum (SOLNI) [4]): 4 (4=60-79% damage); herbicidal damage, PRE Application AMARE [5]: 5 (5=80-100% damage); herbicidal damage, PRE Application IPOHE [6]: 2 (2=20-39% damage); herbicidal damage, POST Application ALOMY [7]: 3 (3=40-59% damage); herbicidal damage, POST Application SETFA (Setaria faberi (SETFA) [8]): 4 (4=60-79% damage); herbicidal damage, POST Application ECHCG [9]: 5 (5=80-100% damage); herbicidal damage, POST Application SOLNI (Solanum nigrum (SOLNI) [10]): 5 (5=80-100% damage); herbicidal damage, POST Application AMARE [11]: 5 (5=80-100% damage); herbicidal damage, POST Application IPOHE [12]: 5 (5=80-100% damage)
Cn1ncc(-c2ccc(Cl)c(Cl)c2Cl)c(O)c1=O [Compound 1.091] | 1 (1=0-19% damage) | 1 (1=0-19% damage) | 1 (1=0-19% damage) | 1 (1=0-19% damage) | 1 (1=0-19% damage) | 1 (1=0-19% damage) | 1 (1=0-19% damage) | 1 (1=0-19% damage) | 1 (1=0-19% damage) | 2 (2=20-39% damage) | 1 (1=0-19% damage) | 1 (1=0-19% damage) | 
Cn1ncc(-c2ccc(C(F)(F)F)cc2C(F)(F)F)c(O)c1=O [Compound 1.033] | 1 (1=0-19% damage) | 1 (1=0-19% damage) | 2 (2=20-39% damage) | 5 (5=80-100% damage) | 5 (5=80-100% damage) | 1 (1=0-19% damage) | 2 (2=20-39% damage) | 1 (1=0-19% damage) | 2 (2=20-39% damage) | 5 (5=80-100% damage) | 5 (5=80-100% damage) | 5 (5=80-100% damage) | 
COc1ccc(Cn2ncc(-c3ccc(Cl)cc3S(C)(=O)=O)c(O)c2=O)cc1 [Compound 2.008] | 4 (4=60-79% damage) | 2 (2=20-39% damage) | 5 (5=80-100% damage) | 5 (5=80-100% damage) | 5 (5=80-100% damage) | 3 (3=40-59% damage) | 3 (3=40-59% damage) | 5 (5=80-100% damage) | 5 (5=80-100% damage) | 5 (5=80-100% damage) | 5 (5=80-100% damage) | 5 (5=80-100% damage) | 
Cc1ccc(-c2cnn(C)c(=O)c2O)c(S(C)(=O)=O)c1 [Compound 2.031] | 4 (4=60-79% damage) | 5 (5=80-100% damage) | 5 (5=80-100% damage) | 5 (5=80-100% damage) | 5 (5=80-100% damage) | 3 (3=40-59% damage) | 4 (4=60-79% damage) | 5 (5=80-100% damage) | 5 (5=80-100% damage) | 5 (5=80-100% damage) | 5 (5=80-100% damage) | 5 (5=80-100% damage) | 
